Assay results taken from article PMC6412019, “Discovery of NV-5138, the first selective Brain mTORC1 activator” (Scientific Reports, 2019).
“And” between values parts separate entries of the source, which are not always exact repeats. Identical values can stand only once. “Also recorded” adds a separate entry of the source.

Assays:
Sestrin2 = target: T1, Sestrin2 (Homo sapiens, UniProt P58004); assay: Isothermal titration calorimetry (ITC) on Sestrin2; type: binding; parameters: Full-length, codon-optimized human Sestrin2 was cloned into a pMAL6H -C5XT bacterial expression vector; His6-MBP (TEV-cleavable) (N, cleaved yes); made in house; host or cells: Escherichia coli LOBSTR (DE3); conditions: for Kd: estimated, Sestrin2 pre-exchanged with methionine
T1 sequence (P58004 1-480): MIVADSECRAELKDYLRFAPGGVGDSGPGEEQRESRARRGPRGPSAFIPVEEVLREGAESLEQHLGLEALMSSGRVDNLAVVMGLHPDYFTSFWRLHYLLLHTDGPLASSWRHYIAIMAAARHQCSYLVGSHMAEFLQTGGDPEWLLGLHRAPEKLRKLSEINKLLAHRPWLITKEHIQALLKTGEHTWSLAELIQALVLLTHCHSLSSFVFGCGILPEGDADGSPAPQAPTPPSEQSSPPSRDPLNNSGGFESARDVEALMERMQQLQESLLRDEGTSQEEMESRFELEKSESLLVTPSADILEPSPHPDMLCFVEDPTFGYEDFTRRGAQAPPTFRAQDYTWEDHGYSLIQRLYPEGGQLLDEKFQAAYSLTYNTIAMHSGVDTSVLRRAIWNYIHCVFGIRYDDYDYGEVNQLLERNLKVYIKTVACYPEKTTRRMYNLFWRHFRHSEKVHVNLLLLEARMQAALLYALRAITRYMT
Experimental: Details of NV-5138 synthesis and protein preparation for ITC can be found in Supplementary Information.
For this exchange procedure ion exchange chromatography was used using the following buffers:
Buffer-A: HEPES 20mM pH 7.4, βME 5mM, Buffer-B: HEPES 20mM pH 7.4, βME 5mM, Methionine 5mM, Buffer-C: HEPES 20mM pH 7.4, βME 5mM, NaCl 1M. Sestrin2 (6 mg) was diluted to 5ml with buffer-A, and loaded on a MonoQ HR 5/50 column equilibrated in buffer-A. The column was washed with 2-3 column volume (CV) of buffer-A followed by 130 ml of buffer-B. The protein was then eluted in steps of 300 mM, 500 mM, and 1 M NaCl in buffer-C. The protein eluted in the 300 mM NaCl fractions and was concentrated to 7.6 mg/ml.

BCAT2 = target: T2, BCAT2 (Homo sapiens, UniProt O15382); assay: BCAT enzymatic assay (substrate test), BCAT2; type: biochemical; conditions: NADH oxidation at 340 nm; tested up to 1.5 mM
T2 construct: purchased OriGene TP300625
T2 sequence (O15382 28-392): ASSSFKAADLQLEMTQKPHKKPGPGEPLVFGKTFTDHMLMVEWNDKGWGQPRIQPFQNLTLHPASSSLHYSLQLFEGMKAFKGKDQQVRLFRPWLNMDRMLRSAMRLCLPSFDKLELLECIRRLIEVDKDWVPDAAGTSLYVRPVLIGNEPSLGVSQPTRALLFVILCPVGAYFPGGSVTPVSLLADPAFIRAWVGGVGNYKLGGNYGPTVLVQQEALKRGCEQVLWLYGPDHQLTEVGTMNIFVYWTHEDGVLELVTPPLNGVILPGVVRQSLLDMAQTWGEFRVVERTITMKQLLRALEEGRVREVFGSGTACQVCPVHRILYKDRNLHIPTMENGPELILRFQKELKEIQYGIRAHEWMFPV
Experimental: BCAT exists in two isoforms, mitochondrial BCAT2 which is ubiquitously expressed, and cytosolic BCAT1, which is predominantly expressed in embryonic tissues and the adult brain. To determine whether NV-5138 is a substrate for BCAT isoforms, we established an in vitro enzymatic assay using purified BCAT1 and BCAT2 and performed the assay in the forward direction as described. […] The disappearance of absorbance at 340 nm due to NADH oxidation is measured continuously over time.
The assay buffer was dispensed into a 96-well plate and brought up to 37 °C for 10 min before adding BCAT1 or BCAT2 (72 ng) in 0.1 M potassium phosphate buffer. Absorbance at 340 nm was then read every minute for 30 min at RT using an Envision plate reader. Source of each reagents used can be found in Supplementary Information.

mTORC1 [1] = assay: mTORC1 activation in rat peripheral tissues after oral dosing (phosphorylated S6 S240/244 immunoblot); type: in vivo; conditions: 1 h after single oral dose; NV-5138 160 mg/kg, leucine 500 mg/kg
Experimental: (§1) After compound administration, animals were sacrificed by decapitation using a guillotine, immediately Specific regions of the brain were quickly microdissected, tissues collected, and flash frozen in liquid nitrogen. Peripheral tissues and all brain were homogenized using MP homogenizer in Lysis Buffer (Cell lysis buffer: 1% Triton X-100, 50 mM HEPES pH 7.4, 100 mM NaCl, 2 mM EDTA, 10 mM Beta-glycerophosphate, 10 mM Sodium pyrophosphate, and 1 protease inhibitor) at 4 °C. Synaptic proteins and mTORC1 analyses in each brain region were conducted on crude synaptoneurosome preparations as previously described. Equal amounts of total protein from each sample were denatured and, resolved by SDS-PAGE. Membranes were imaged using the LI-COR imaging system. Proteins levels are normalized to tubulin or GAPDH levels and further normalized to vehicle treated rats for each tissue. Antibodies used are listed in Supplementary Information.

mTORC1 [2] = assay: mTORC1 activation in rat brain after oral dosing (phosphorylated S6 S240/244 immunoblot); type: in vivo; conditions: for mTORC1 activation in brain (pS6 increase): 1 h after single oral dose, NV-5138 160 mg/kg, leucine 500 mg/kg; for increase in S240/244 pS6 versus vehicle: synaptoneurosomes from pre-frontal cortex
Description: Given the favorable PK properties of NV-5138, we wished to determine whether oral administration of NV-5138 could activate mTORC1 in the brain and other organs of ad libitum fed rats using the mTORC1 downstream substrate phosphorylated S6 (^S240/244pS6) as a surrogate PD parameter for the activation status of the complex.
as §1

[3] = 160 mg/kg PO, 1 h, synaptoneurosomes

| Kd (Sestrin2) | molar stoichiometry (ITC) (Sestrin2) | Structure (SMILES) | transamination by BCAT2 (BCAT2) | mTORC1 activation in kidney, heart, tibialis anterior muscle, testes, epididymal fat (mTORC1 [1]) | mTORC1 activation in liver (mTORC1 [1]) | mTORC1 activation in lung, spleen, gastrocnemius muscle, eye, thymus (mTORC1 [1]) | mTORC1 activation in cerebellum (mTORC1 [2]; [3]) | mTORC1 activation in striatum, hippocampus, neocortex (mTORC1 [2]; [3]) | mTORC1 activation in brain (pS6 increase) (mTORC1 [2]; ad libitum fed rats) | time of peak mTORC1 activation in brain (mTORC1 [2]; single 160 mg/kg PO) | time until mTORC1 activation back to baseline/vehicle levels (mTORC1 [2]; single 160 mg/kg PO) | increase in S240/244 pS6 versus vehicle (mTORC1 [2]; 1 h after 80 mg/kg PO) | increase in S240/244 pS6 versus vehicle (mTORC1 [2]; 1 h after 160 mg/kg PO, ad libitum fed rats) |
| --- | --- | --- | --- | --- | --- | --- | --- | --- | --- | --- | --- | --- | --- |
| 1500 nM and 1490 nM |  | CC(C)(C[C@H](N)C(=O)O)C(F)F [NV-5138, (S)-2-amino-5,5-difluoro-4,4-dimethylpentanoic acid] | no decrease in absorption at 340 nm; also recorded: did not observe any transamination | significant activation | trend | little to no activation | but not the cerebellum | significant activation | ~ 2 fold | ~ 3 h | ≤ 7 h | trending increase | ~ 2 fold |
| 1600 nM and 1550 nM | 1 | CC(C)C[C@H](N)C(=O)O [Leucine, L-leucine, reference compound] | transaminated by BCAT1 and BCAT2 | significant activation | significant activation | little to no activation |  |  | no activation |  |  |  |  |
